Like-named read-outs stand apart in the source and are kept apart here.
Legend:
Format in all cases: in vivo
Apis mellifera [1] = tested on: Apis mellifera
Description: (§1) Der Test wurde gemäß EPPO (European Plant Protection Organisation) Leitlinie 170 wie folgt durchgeführt:
Die Mortalität von Arbeiterbienen vor dem Bienenstock wird mittels einer Falle für tote Bienen (dead bee trap) bestimmt. Die Falle besteht aus Maschendraht und ist vor dem Bienenstock angebracht. Einzelne, lebende Bienen können die Maschen des Drahts passieren, der Transport toter Bienen durch die Maschen ist nicht möglich, weswegen tote Bienen sich in der Falle ansammeln. Tabelle 1 (siehe auch Figur 1)

Bombus terrestris = test: Tent test / drench application / bumblebees: pollination activity on tomato; details: for Zahl der Blüten: markierte Blüten / Zahl der Blüten: offene Blüten: 20 mg a.s./pl.
Description: Der Versuch wurde wie folgt durchgeführt:
Bei Tomaten kommt es durch den Besuch von Hummeln zu einer Farbveränderung der Staubgefäße (markierte Blüten). Es wurde die Zahl offener und markierter Blüten bestimmt. Tabelle 8 (siehe auch Figur 8)

Apis mellifera [2] = test: Tunnel test / spray application / bees: brood development (share of comb cells)
Description: as §1
Über alle Waben eines Bienenstocks wird der jeweilige Anteil an Zellen bestimmt, der durch Pollen, Nektar, Eier, Larven oder Puppen belegt ist bzw. leer ist. […]

[3] = 75 g a.s./ha, 1 Tag vor Applikation
[4] = 75 g a.s./ha, 6 Tage nach Applikation
[5] = 75 g a.s./ha, 14 Tage nach Applikation
[6] = 75 g a.s./ha, 27 Tage nach Applikation
[7] = 150 g a.s./ha, 1 Tag vor Applikation
[8] = 150 g a.s./ha, 6 Tage nach Applikation
[9] = 150 g a.s./ha, 14 Tage nach Applikation

In the case of O=C1C=C(N(Cc2ccc(Cl)nc2)CC(F)F)CO1 [I-5, 4-{[(6-Chlorpyrid-3-yl)methyl](2,2-difluorethyl)amino}furan-2(5H)-on], the “Zahl toter Arbeiterbienen” value (Apis mellifera [1]; 75 g a.s./ha, 0 DAA b (15:15 Uhr)) is reported as 0, the “Zahl toter Arbeiterbienen” value (Apis mellifera [1]; 75 g a.s./ha, 0 DAA c (17:15 Uhr)) is reported as 0,7 and the “Zahl toter Arbeiterbienen” value (Apis mellifera [1]; 75 g a.s./ha, 1 DAA) is reported as 0. For the same compound, the “Zahl toter Arbeiterbienen” value (Apis mellifera [1]; 75 g a.s./ha, 2 DAA) was 0,3, the “Zahl toter Arbeiterbienen” value (Apis mellifera [1]; 75 g a.s./ha, 3 DAA) was 0,3 and the “Zahl toter Arbeiterbienen” value (Apis mellifera [1]; 75 g a.s./ha, 4 DAA) was 3,7. The “Zahl toter Arbeiterbienen” value (Apis mellifera [1]; 75 g a.s./ha, 5 DAA) was 0,3, the “Zahl toter Arbeiterbienen” value (Apis mellifera [1]; 75 g a.s./ha, 6 DAA) was 4,3 and the “Zahl toter Arbeiterbienen” value (Apis mellifera [1]; 75 g a.s./ha, 11 DAA) was 0. For the same compound, the “Zahl toter Arbeiterbienen” value (Apis mellifera [1]; 75 g a.s./ha, -3 DAA (before application)) was 0,3, the “Zahl toter Arbeiterbienen” value (Apis mellifera [1]; 150 g a.s./ha, 0 DAA b (15:15 Uhr)) was 1,3 and the “Zahl toter Arbeiterbienen” value (Apis mellifera [1]; 150 g a.s./ha, 0 DAA c (17:15 Uhr)) was 0,3. For the same compound, the “Zahl toter Arbeiterbienen” value (Apis mellifera [1]; 150 g a.s./ha, 1 DAA) was 0, the “Zahl toter Arbeiterbienen” value (Apis mellifera [1]; 150 g a.s./ha, 2 DAA) was 0 and the “Zahl toter Arbeiterbienen” value (Apis mellifera [1]; 150 g a.s./ha, 3 DAA) was 0. For the same compound, the “Zahl toter Arbeiterbienen” value (Apis mellifera [1]; 150 g a.s./ha, 4 DAA) was 1,7, the “Zahl toter Arbeiterbienen” value (Apis mellifera [1]; 150 g a.s./ha, 5 DAA) was 0,7 and the “Zahl toter Arbeiterbienen” value (Apis mellifera [1]; 150 g a.s./ha, 6 DAA) was 2. For the same compound, the “Zahl toter Arbeiterbienen” value (Apis mellifera [1]; 150 g a.s./ha, 11 DAA) was 1,7, the “Zahl toter Arbeiterbienen” value (Apis mellifera [1]; 150 g a.s./ha, -3 DAA (before application)) was 0,3 and the “Mortalität von Arbeiterbienen vor dem Bienenstock” value (Apis mellifera [1]; result in words, tunnel test, spray, I-5 75 und 150 g a.s./ha, Thiamethoxam 50 g a.s./ha) was “keine Mortalität”. The “Zahl der Blüten: markierte Blüten” value (Bombus terrestris; DAA 13 after first application) was 59,4, the “Zahl der Blüten: offene Blüten” value (Bombus terrestris; DAA 13 after first application) was 67,3 and the “Zahl der Blüten: markierte Blüten” value (Bombus terrestris; DAA 22 after first application) was 53,7. The “Zahl der Blüten: offene Blüten” value (Bombus terrestris; DAA 22 after first application) was 59,3, the “Bestäubungsaktivität der Hummeln” value (Bombus terrestris; result in words, 20 mg a.s. / Pflanze, 2 applications (Tag 0 und Tag 14)) was “keine Änderung” and the “Anteil an Zellen: Eier” value (Apis mellifera [2]; [3]) was 13,9%. For the same compound, the “Anteil an Zellen: Larven” value (Apis mellifera [2]; [3]) was 9,2%, the “Anteil an Zellen: Leer” value (Apis mellifera [2]; [3]) was 26,7% and the “Anteil an Zellen: Nektar” value (Apis mellifera [2]; [3]) was 12,5%. The “Anteil an Zellen: Pollen” value (Apis mellifera [2]; [3]) was 3,1%, the “Anteil an Zellen: Puppen” value (Apis mellifera [2]; [3]) was 34,7% and the “Anteil an Zellen: Eier” value (Apis mellifera [2]; [4]) was 14,7%. For the same compound, the “Anteil an Zellen: Larven” value (Apis mellifera [2]; [4]) was 8,3%, the “Anteil an Zellen: Leer” value (Apis mellifera [2]; [4]) was 32,8% and the “Anteil an Zellen: Nektar” value (Apis mellifera [2]; [4]) was 12,5%. The “Anteil an Zellen: Pollen” value (Apis mellifera [2]; [4]) was 4,4%, the “Anteil an Zellen: Puppen” value (Apis mellifera [2]; [4]) was 27,2% and the “Anteil an Zellen: Eier” value (Apis mellifera [2]; [5]) was 21,4%. For the same compound, the “Anteil an Zellen: Larven” value (Apis mellifera [2]; [5]) was 19,7%, the “Anteil an Zellen: Leer” value (Apis mellifera [2]; [5]) was 30,6% and the “Anteil an Zellen: Nektar” value (Apis mellifera [2]; [5]) was 8,6%. For the same compound, the “Anteil an Zellen: Pollen” value (Apis mellifera [2]; [5]) was 5%, the “Anteil an Zellen: Puppen” value (Apis mellifera [2]; [5]) was 14,7% and the “Anteil an Zellen: Eier” value (Apis mellifera [2]; [6]) was 16,7%. The “Anteil an Zellen: Larven” value (Apis mellifera [2]; [6]) was 6,7%, the “Anteil an Zellen: Leer” value (Apis mellifera [2]; [6]) was 20,7% and the “Anteil an Zellen: Nektar” value (Apis mellifera [2]; [6]) was 13,2%. The “Anteil an Zellen: Pollen” value (Apis mellifera [2]; [6]) was 3,3%, the “Anteil an Zellen: Puppen” value (Apis mellifera [2]; [6]) was 39,4% and the “Anteil an Zellen: Eier” value (Apis mellifera [2]; [7]) was 13,6%. The “Anteil an Zellen: Larven” value (Apis mellifera [2]; [7]) was 16,4%, the “Anteil an Zellen: Leer” value (Apis mellifera [2]; [7]) was 20,8% and the “Anteil an Zellen: Nektar” value (Apis mellifera [2]; [7]) was 14,2%. For the same compound, the “Anteil an Zellen: Pollen” value (Apis mellifera [2]; [7]) was 1,4%, the “Anteil an Zellen: Puppen” value (Apis mellifera [2]; [7]) was 33,6% and the “Anteil an Zellen: Eier” value (Apis mellifera [2]; [8]) was 15%. For the same compound, the “Anteil an Zellen: Larven” value (Apis mellifera [2]; [8]) was 6,1%, the “Anteil an Zellen: Leer” value (Apis mellifera [2]; [8]) was 29,4% and the “Anteil an Zellen: Nektar” value (Apis mellifera [2]; [8]) was 14,4%. The “Anteil an Zellen: Pollen” value (Apis mellifera [2]; [8]) was 3,9%, the “Anteil an Zellen: Puppen” value (Apis mellifera [2]; [8]) was 31,1% and the “Anteil an Zellen: Eier” value (Apis mellifera [2]; [9]) was 17,8%. For the same compound, the “Anteil an Zellen: Larven” value (Apis mellifera [2]; [9]) was 16,7% and the “Anteil an Zellen: Leer” value (Apis mellifera [2]; [9]) was 34,4%.

From patent publication EP2193713A1, “Method for fighting animal pests without damaging pollinating insects” (Bayer CropScience AG, priority 2008, dated 2010)
